Each structure is given as a SMILES string. Read-outs that look alike come from different tables or passages of the source.

Assay [1] deals with A2780 cells. Description: CCK-8 cytotoxicity experiment on parental A2780 cells. The format is cell-based. The conditions noted are these: Homo sapiens, 72 h drug treatment. The procedure: (§1) A cell counting kit-8 (CCK-8) of Shanghai Beyotime Biotechnology Co., Ltd. (C0038) was used in the cytotoxicity experiment. Cells in logarithmic growth phase were collected, and the concentration of cell suspension was adjusted to 5×10^4 cells/ml; 100 μl of the cell suspension was added to each well of 96-well plate, and the density of the cells to be tested was 5000 cells/well; cultures were incubated overnight in the incubator with 5 vol % CO2 at 37° C. until the cells were grown as adherent monolayers, and then drugs with concentrations of 1×10^−3-100 μM were added respectively; 3 replicate wells were set for each concentration; OD values were determined after 72 h of drug treatment; 10 μl CCK-8 solution was added to each well; after further incubation in the cell incubator for 2 h, the absorbance was measured at 450 nm using a microplate reader (Bio-Rad, Model 680), as shown in FIG. 3. The IC50 of the drug was calculated.

Assay [2] concerns A2780-NiraR cells. Description: CCK-8 cytotoxicity experiment on Niraparib-resistant A2780-NiraR cells (resistance index, stability of resistance). The class given is cell-based, human. The conditions noted are these: for Drug resistance index (RI) = IC50 of drug-resistant cells/IC50 of parental cells: A2780-NiraR vs A2780; for IC50: Homo sapiens. Here is the method: as §1
Resistance index (RI)=IC50 of drug-resistant cells/IC50 of parental cells.
After the establishment of A2780-NiraR cell strain, the drug resistance was re-tested after cell resuscitation following 3-month drug-withdrawal culture and 6-month liquid nitrogen cryopreservation. The procedure was the same as that of the resistance index determination in part 3.

Setting [3] is: A2780-NiraR cells, 72 h drug treatment, CCK-8, read-out: IC50.

Take `NC(=O)c1cccc2cn(-c3ccc([C@@H]4CCCNC4)cc3)nc12` [Niraparib]: the IC50 in assay [1] worked out at 3.17 µM; in assay [2] (A2780-NiraR after resuscitation following 3-month drug-withdrawal culture and 6-month liquid nitrogen cryopreservation, read-out: IC50 of A2780-NiraR on re-test) it was 24 µM; in assay [2] (setting [3]), 26.2 µM. Also, in assay [2] (A2780-NiraR cells), the “Resistance of A2780-NiraR cells in words” value is reported as “highly resistant”. Moreover, in assay [2], the “Drug resistance index (RI) = IC50 of drug-resistant cells/IC50 of parental cells” value is 8.274.

Take `CC(=O)O[C@H]1C(=O)[C@@]2(C)[C@H]([C@H](OC(=O)c3ccccc3)[C@]3(O)C[C@H](OC(=O)[C@H](O)[C@@H](NC(=O)c4ccccc4)c4ccccc4)C(C)=C1C3(C)C)[C@]1(OC(C)=O)CO[C@@H]1C[C@@H]2O` [Paclitaxel]: the IC50 was found to be 0.01 µM in assay [1] and 0.318 µM in assay [2] (setting [3]). Also, in assay [2] (A2780-NiraR cells), the “Resistance of A2780-NiraR cells in words” value is “cross-resistant”. Besides, in assay [2], the “Drug resistance index (RI) = IC50 of drug-resistant cells/IC50 of parental cells” value is recorded as 31.02.

(Values after US20240263142A1, “HUMAN OVARIAN CANCER NIRAPARIB-RESISTANT CELL STRAIN AND USE THEREOF” (WOMEN’S HOSPITAL, ZHEJIANG UNIVERSITY SCHOOL OF MEDICINE, priority 2022, published 2024).)
